Key:
dallisgrass = test: Test F preemergence; assay type: in vivo, Paspalum dilatatum; details: 21 days, scale 0 to 100
Excerpt: (§1) Seeds of plant species selected from bermudagrass (Cynodon dactylon), surinam grass (Brachiaria decumbens), large (Lg) crabgrass (Digitaria sanguinalis), crabgrass, naked (naked crabgrass, Digitaria nuda), foxtail, green (green foxtail, Setaria viridis), johnsongrass (Sorghum halepense), kochia (Kochia scoparia), morningglory (pitted morningglory, Ipomoea lacunosa), nutsedge, purple (purple nutsedge, Cyperus rotundus), ragweed (common ragweed, Ambrosia elatior), mustard, black (black mustard, Brassica nigra), guineagrass (Panicum maximum), dallisgrass (Paspalum dilatatum), barnyardgrass (Echinochloa crus-galli), sandbur (southern sandbur, Cenchrus echinatus), sowthistle (common sowthistle, Sonchus oleraceous), Italian ryegrass (Lolium multiflorum), signalgrass (broadleaf signalgrass, Brachiaria platyphylla), dayflower (Virginia (VA) dayflower, Commelina virginica), bluegrass (annual bluegrass, Poa annua), quackgrass (Elytrigia repens), mallow (common mallow, Malva sylvestris), buckwheat, wild (wild buckwheat, Polygonum convolvulus), leafy spurge (Euphorbia esula), chickweed (common chickweed, Stellaria media), wild poinsettia (Euphorbia heterophylla), and pigweed (Amaranthus retroflexus) were planted into a blend of loam soil and sand and treated preemergence with test chemicals formulated in a non-phytotoxic solvent mixture which included a surfactant.
(§2) Treated plants and controls were maintained in a greenhouse for 21 days, after which time all species were compared to controls and visually evaluated. Plant response ratings, summarized in Table F, are based on a scale of 0 to 100 where 0 is no effect and 100 is complete control. A dash (-) response means no test result.

signalgrass = test: Test F preemergence; assay type: in vivo, Brachiaria platyphylla; details: 21 days, scale 0 to 100
Excerpt: as §1, §2

sowthistle = test: Test F preemergence; assay type: in vivo, Sonchus oleraceous; details: 21 days, scale 0 to 100
Excerpt: as §1, §2

speedwell = test: Test D preemergence; assay type: in vivo, Veronica persica; details: for pest or weed control at 16 g/ha / pest or weed control at 31 g/ha: read-out: Plant response rating, Speedwell
Excerpt: (§3) Seeds of plant species selected from bluegrass (annual bluegrass, Poa annua), blackgrass (Alopecurus myosuroides), canarygrass (littleseed canarygrass, Phalaris minor), chickweed (common chickweed, Stellaria media), galium (catchweed bedstraw, Galium aparine), bromegrass, downy (downy bromegrass, Bromus tectorum), field poppy (Papaver rhoeas), field violet (Viola arvensis), green foxtail (Setaria viridis), deadnettle (henbit deadnettle, Lamium amplexicaule), Italian ryegrass (Lolium multiflorum), kochia (Kochia scoparia), lambsquarters (Chenopodium album), oilseed rape (Brassica napus), pigweed (Amaranthus retroflexus), chamomile (scentless chamomile, Matricaria inodora), Russian thistle (Salsola kali), speedwell (bird's-eye speedwell, Veronica persica), spring barley (Hordeum vulgare), spring wheat (Triticum aestivum), wild buckwheat (Polygonum convolvulus), wild mustard (Sinapis arvensis), wild oat (Avena fatua), wild radish (Raphanus raphanistrum), windgrass (Apera spica-venti), winter barley (Hordeum vulgare), and winter wheat (Triticum aestivum) were planted into a silt loam soil and treated preemergence with test chemicals formulated in a non-phytotoxic solvent mixture which included a surfactant.
(§4) At the same time, these species were planted in pots containing Redi-Earth® planting medium (Scotts Company, 14111 Scottslawn Road, Marysville, Ohio 43041) comprising spaghnum peat moss, vermiculite, wetting agent and starter nutrients and treated with postemergence applications of the test chemicals formulated in the same manner. Plants ranged in height from 2 to 18 cm (1- to 4-leaf stage). Treated plants and controls were maintained in a controlled growth environment for 7 to 21 days after which time all species were compared to controls and visually evaluated. Plant response ratings, summarized in Table D, are based on a scale of 0 to 100 where 0 is no effect and 100 is complete control. A dash (-) response means no test result.

winter wheat = test: Test D postemergence; assay type: in vivo, Triticum aestivum; details: for plant injury at 16 g/ha / plant injury at 31 g/ha / plant injury at 62 g/ha / plant injury at 125 g/ha: Triticum aestivum, post-emergence; for plant injury at 16 g/ha: scale 0-100, read-out: Plant response rating, Wheat, Winter; for plant injury at 31 g/ha / plant injury at 62 g/ha / plant injury at 125 g/ha: read-out: Plant response rating, Wheat, Winter
Excerpt: as §3, §4

spring wheat = test: Test D postemergence; assay type: in vivo, Triticum aestivum; details: for plant injury at 16 g/ha / plant injury at 31 g/ha / plant injury at 62 g/ha / plant injury at 125 g/ha: Triticum aestivum, post-emergence; for plant injury at 16 g/ha: scale 0-100, read-out: Plant response rating, Wheat, Spring; for plant injury at 31 g/ha / plant injury at 62 g/ha / plant injury at 125 g/ha: read-out: Plant response rating, Wheat, Spring
Excerpt: as §3, §4

galium = test: Test D postemergence; assay type: in vivo, Galium aparine; details: for pest or weed control at 16 g/ha / pest or weed control at 31 g/ha / pest or weed control at 62 g/ha / pest or weed control at 125 g/ha: Galium, post-emergence; for pest or weed control at 16 g/ha: scale 0-100, read-out: Plant response rating, Galium; for pest or weed control at 31 g/ha / pest or weed control at 62 g/ha / pest or weed control at 125 g/ha: read-out: Plant response rating, Galium
Excerpt: as §3, §4

kochia = test: Test E postemergence; assay type: in vivo, Kochia scoparia
Excerpt: Seeds of plant species selected from corn (Zea mays), soybean (Glycine max), velvetleaf (Abutilon theophrasti), lambsquarters (Chenopodium album), wild poinsettia (Euphorbia heterophylla), palmer pigweed (Amaranthus palmeri), waterhemp (common waterhemp, Amaranthus rudis), surinam grass (Brachiaria decumbens), large (Lg) crabgrass (Digitaria sanguinalis), Brazilian crabgrass (Digitaria horizontalis), fall panicum (Panicum dichotomiflorum), giant foxtail (Setaria faberii), green foxtail (Setaria viridis), goosegrass (Eleusine indica), johnsongrass (Sorghum halepense), ragweed (common ragweed, Ambrosia elatior), barnyardgrass (Echinochloa crus-galli), sandbur (southern sandbur, Cenchrus echinatus), arrowleaf sida (Sida rhombifolia), Italian ryegrass (Lolium multiflorum), dayflower (Virginia (VA) dayflower, Commelina virginica), field bindweed (Convolvulus arvensis), morningglory (Ipomoea coccinea), nightshade (eastern black nightshade, Solanum ptycanthum), kochia (Kochia scoparia), yellow nutsedge (Cyperus esculentus), cocklebur (common cocklebur, Xanthium strumarium), smartweed (ladysthumb smartweed, and hairy beggarticks (Bidens pilosa), were planted into a silt loam soil and treated preemergence with test chemicals formulated in a non-phytotoxic solvent mixture which included a surfactant.
At the same time, plants from these crop and weed species and also horseweed (Canada horseweed, Conyza canadensis), waterhemp_RES1, (ALS & Triazine resistant common waterhemp, Amaranthus rudis), and waterhemp_RES2, (ALS & HPPD resistant common waterhemp, Amaranthus rudis) were planted in pots containing Redi-Earth® planting medium (Scotts Company, 14111 Scottslawn Road, Marysville, Ohio 43041) comprising spaghnum peat moss, vermiculite, wetting agent and starter nutrients were treated with postemergence applications of test chemicals formulated in the same manner. Plants ranged in height from 2 to 18 cm for postemergence treatments (1- to 4-leaf stage). Treated plants and controls were maintained in a greenhouse for 14 to 21 days, after which time all species were compared to controls and visually evaluated. Plant response ratings, summarized in Table E, are based on a scale of 0 to 100 where 0 is no effect and 100 is complete control. A dash (-) response means no test result.

[1] = Veronica persica, pre-emergence, 16 g ai/ha, scale 0 (no effect) to 100 (complete control)
[2] = Veronica persica, pre-emergence, 31 g ai/ha, scale 0 (no effect) to 100 (complete control)
[3] = Veronica persica, pre-emergence, 125 g ai/ha, scale 0-100, read-out: Plant response rating, Speedwell
[4] = 31 g ai/ha, scale 0 to 100 (0 no effect, 100 complete control)
[5] = 62 g ai/ha, scale 0 to 100 (0 no effect, 100 complete control)
[6] = 125 g ai/ha, scale 0 to 100 (0 no effect, 100 complete control)

Structure (SMILES)	Plant response rating, Dallisgrass (dallisgrass; 16 g ai/ha)	Plant response rating, Dallisgrass (dallisgrass; 31 g ai/ha)	Plant response rating, Dallisgrass (dallisgrass; 62 g ai/ha)	Plant response rating, Dallisgrass (dallisgrass; 125 g ai/ha)	Plant response rating, Dallisgrass (dallisgrass; 250 g ai/ha)	Plant response rating, Signalgrass (signalgrass; 16 g ai/ha)	Plant response rating, Signalgrass (signalgrass; 31 g ai/ha)	Plant response rating, Signalgrass (signalgrass; 62 g ai/ha)	Plant response rating, Signalgrass (signalgrass; 125 g ai/ha)	Plant response rating, Signalgrass (signalgrass; 250 g ai/ha)	Plant response rating, Sowthistle (sowthistle; 16 g ai/ha)	Plant response rating, Sowthistle (sowthistle; 31 g ai/ha)	Plant response rating, Sowthistle (sowthistle; 62 g ai/ha)	Plant response rating, Sowthistle (sowthistle; 125 g ai/ha)	Plant response rating, Sowthistle (sowthistle; 250 g ai/ha)	pest or weed control at 16 g/ha (speedwell; [1]) [%]	pest or weed control at 31 g/ha (speedwell; [2]) [%]	pest or weed control at 125 g/ha (speedwell; [3]) [%]	plant injury at 16 g/ha (winter wheat; 16 g ai/ha) [%]	plant injury at 31 g/ha (winter wheat; [4]) [%]	further results
N#Cc1cccc(Oc2ncc(Cl)cn2)c1-n1cc(OC(F)F)cn1 [Compound 97]	75	98	100	100	100	25	90	85	100	100	100	100	100	100	100	–	–	–	–	–	–
Fc1cccc(Oc2ncc(Cl)cn2)c1-n1cc(C(F)F)nn1 [Compound 141, 5-chloro-2-[2-[4-(difluoromethyl)-1H-1,2,3-triazol-1-yl]-3-fluorophenoxy]pyrimidine]	–	–	–	–	–	–	–	–	–	–	–	–	–	–	–	100	100	100	5	5	pest or weed control at 62 g/ha (speedwell; Veronica persica, pre-emergence, 62 g ai/ha, scale 0-100, read-out: Plant response rating, Speedwell): 100%; plant injury at 62 g/ha (winter wheat; [5]): 20%; plant injury at 125 g/ha (winter wheat; [6]): 50%; plant injury at 16 g/ha (spring wheat; 16 g ai/ha): 15%; plant injury at 31 g/ha (spring wheat; [4]): 20%; plant injury at 62 g/ha (spring wheat; [5]): 25%; plant injury at 125 g/ha (spring wheat; [6]): 35%; pest or weed control at 16 g/ha (galium; 16 g ai/ha): 95%; pest or weed control at 31 g/ha (galium; [4]): 98%; pest or weed control at 62 g/ha (galium; [5]): 98%; pest or weed control at 125 g/ha (galium; [6]): 98%
Clc1cnc(Oc2cccc(Cl)c2-n2cc(I)cn2)nc1 [Compound 181]	–	–	–	–	–	–	–	–	–	–	–	–	–	–	–	–	–	–	–	–	Plant response rating, Kochia (kochia; Postemergence, 31 g ai/ha, scale 0 to 100): 60; Plant response rating, Kochia (kochia; Postemergence, 62 g ai/ha, scale 0 to 100): 50; Plant response rating, Kochia (kochia; Postemergence, 125 g ai/ha, scale 0 to 100): 90; Plant response rating, Kochia (kochia; postemergence, 16 g ai/ha, scale 0 to 100, 0 no effect, 100 complete control): 35
FCc1cccc(Oc2ncc(Cl)cn2)c1-n1cc(I)cn1 [Compound 245]	–	–	–	–	–	–	–	–	–	–	–	–	–	–	–	–	–	–	–	–	Plant response rating, Speedwell (speedwell; 16 g ai/ha, scale 0 (no effect) to 100 (complete control)): 5; Plant response rating, Speedwell (speedwell; 31 g ai/ha, scale 0 (no effect) to 100 (complete control)): 100; Plant response rating, Speedwell (speedwell; 125 g ai/ha, scale 0-100): 100; Plant response rating, Wheat, Winter (winter wheat; 16 g ai/ha, scale 0-100): 5; Plant response rating, Wheat, Winter (winter wheat; [4]): 10; Plant response rating, Wheat, Winter (winter wheat; [5]): 10; Plant response rating, Wheat, Winter (winter wheat; [6]): 10; Plant response rating, Wheat, Spring (spring wheat; 16 g ai/ha, scale 0-100): 10; Plant response rating, Wheat, Spring (spring wheat; [4]): 10; Plant response rating, Wheat, Spring (spring wheat; [5]): 10; Plant response rating, Wheat, Spring (spring wheat; [6]): 20; Plant response rating, Galium (galium; 16 g ai/ha, scale 0-100): 70; Plant response rating, Galium (galium; [4]): 75; Plant response rating, Galium (galium; [5]): 90; Plant response rating, Galium (galium; [6]): 98
N#Cc1cccc(Oc2ncc(Cl)cn2)c1-n1cc(OCC(F)(F)F)cn1 [Compound 274, 3-[(5-chloro-2-pyrimidinyl)oxy]-2-[4-(2,2,2-trifluoroethoxy)-1H-pyrazol-1-yl]benzonitrile]	95	100	100	100	100	75	70	100	100	100	100	100	100	100	100	100	100	100	10	20	plant injury at 62 g/ha (winter wheat; [5]): 20%; plant injury at 125 g/ha (winter wheat; [6]): 30%; plant injury at 16 g/ha (spring wheat; 16 g ai/ha): 10%; plant injury at 31 g/ha (spring wheat; [4]): 15%; plant injury at 62 g/ha (spring wheat; [5]): 15%; plant injury at 125 g/ha (spring wheat; [6]): 25%; pest or weed control at 16 g/ha (galium; 16 g ai/ha): 70%; pest or weed control at 31 g/ha (galium; [4]): 70%; pest or weed control at 62 g/ha (galium; [5]): 75%; pest or weed control at 125 g/ha (galium; [6]): 85%
